Our source for the EC50 values is publication PMC9243336, “Santalol Isomers Inhibit Transthyretin Amyloidogenesis and Associated Pathologies in Caenorhabditis elegans” (Frontiers in Pharmacology, 2022).

Assay [1] has as its target T1, Transthyretin (TTR, prealbumin), wild type (Homo sapiens, UniProt P02766).
T1 construct: homotetramer; prealbumin from human plasma
The assay can be described thus: acid-induced (pH […] h) aggregation turbidity; urea denaturation by Trp fluorescence. Format: biochemical.

The next assay deals with Transthyretin (TTR) V30M (Homo sapiens, UniProt P02766, V50M). The description is as above. Format: biochemical.

On to `C/C(=C/CC[C@@]1(C)C2C[C@@H]3[C@H](C2)C31C)CO` [α-santalol], for which the EC50 (as a rule, the midpoint of the concentration-response curve) in assay [1] came out at 36.7 ± 1.2 µM; on Transthyretin (TTR) V30M, 44.3 ± 3.5 µM.
In the same order, the values of `C=C1[C@@H]2CC[C@@H](C2)[C@@]1(C)CC/C=C(/C)CO` [β-santalol] are 31.1 ± 2.4 µM and 34.5 ± 2.8 µM.
